# Reference: patent publication US20060241073A1, “Means and methods for counteracting fatty acid accumulation” (priority 2005, published 2006)
# Like-named read-outs stand apart in the source and are kept apart here.
# Experiments:
# [1] = tested on: phytanic acid omega-hydroxylase (cytochrome P450) of rat liver microsomes; assay: Phytanic acid omega-hydroxylation in rat liver microsomes (formation of omega-hydroxyphytanic acid, GC/MS); assay type: biochemical; conditions: for effect on the formation of omega-hydroxyphytanic acid: different concentrations of imidazole derivatives (FIG. 4A)
# Protocol: (§1) To this end, Male Wistar rats fed a standard laboratory diet, were fasted overnight before sacrifice and removal of the liver. The livers were rapidly chilled and washed several times in buffer containing 250 mM sucrose, 0.5 mM EDTA, 2 mM MOPS/KOH (final pH 7.4). Subsequently, the livers were minced and homogenized with a Potter S homogenizer (B. Braun, Germany) with a teflon pestle at 500 rpm (5 strokes), followed by centrifugation of the homogenate for 10 min at 550×g. The obtained post-nuclear supernatant was subjected to centrifugation at 22,500×g for 10 min to remove mitochondria and lysosomes. Finally, the microsomal fraction was obtained by centrifugation of the supernatant for 3 h at 32,000×g. The microsomal pellet fraction was taken up in PBS containing 5 mM DTT and divided into small aliquots, which were stored at −80° C. The microsomes were sonicated 3 times for 10 s at 8 Watt before each experiment.
# The standard reaction mixture consisted of 100 mM potassium phosphate buffer pH 7.4 and rat liver microsomes (1 mg/ml end concentration) plus phytanic acid dissolved in DMSO (200 μM end concentration, unless indicated otherwise). Reactions were initiated by addition of NADPH at a final concentration of 1 mM. The final reaction volume was 0.2 ml. Reactions were terminated by addition of 0.2 ml 1 M HCl. […] The internal standard (IS, 10 nmol 3-hydroxyheptadecanoic acid in 20 μl ethanol) was added to this aqueous mixture. The samples were extracted twice with 6 ml ethylacetate-diethylether (1:1 v/v). The organic layer was collected and the solvents evaporated under vacuum using a rotary evaporator at room temperature. The residue was dissolved in 4 ml ethylacetate and further dried with MgSO4. After spinning down the MgSO4, the solution was transferred to 4 ml reaction vials and the solvent evaporated under nitrogen. […] TMS ester/ether formation was performed with 40 μl N,O-bis-(trimethylsilyl)trifluoroacetamide (BSTFA) containing 1% trimethylchlorosilane (TMCS) and 10 μl pyridine. The vials were sealed with a Teflon-lined screwcap and incubated at 80° C. for 1 hour. After the incubation the solution could be directly used for GC-MS analysis.
# The identity of the substrate, the internal standard, and the reaction product(s) was verified by taking mass spectra of the pertrimethylsilylated derivatives in the scanning electron impact mode.
# Based on the experiments described above, I selected the following assay conditions: 0,75 mg/ml methyl-beta-cyclodextrin, 100 mM potassium phosphate (pH 7.6), 1 mM NADPH, and 200 μM phytanic acid. Under these conditions, formation of omega-hydroxyphytanic acid was linear with time up to 60 min, and with protein up to 1 mg/ml (data not shown).
# FIG. 4. […] Rat liver microsomes were incubated with phytanic acid in the presence of different concentrations of imidazole derivatives. The inhibitory effect of the imidazole derivatives on the formation of omega-hydroxyphytanic acid (omega-HPA; A) and (omega-1)-hydroxyphytanic acid (B) is shown. The data shown represent means of duplicate experiments.
# [2] = tested on: phytanic acid omega-hydroxylase (cytochrome P450) of pooled human liver microsomes; assay: Phytanic acid omega-hydroxylation in pooled human liver microsomes (formation of omega-hydroxyphytanic acid, GC/MS); conditions: for effect on the formation of omega-hydroxyphytanic acid / Km: pooled human liver microsomes; for effect on the formation of omega-hydroxyphytanic acid: different concentrations of imidazole derivatives (FIG. 7A)
# Protocol: (§2) Reactions were initiated by adding NADPH (final concentration 1 mM) and terminated by addition of 0.1 ml 1 M HCl. […] After addition of the internal standard (IS, 2 nmol 3-hydroxyheptadecanoic acid in 20 μl ethanol) the samples were extracted twice with 6 ml ethylacetate-diethylether (1:1 v/v). The organic layers were collected and the solvents evaporated. The residue was dissolved in 4 ml ethylacetate and further dried with anhydrous MgSO4 and again evaporated. […] TMS ester/ether formation was performed by incubating the samples with 40 μl BSTFA containing 1% TMCS and 10 μl pyridine at 80° C. for 1 hour. After the incubation the solution was directly used for GC-MS analysis.
# (§3) FIG. 7. […] Pooled human liver microsomes were incubated with phytanic acid in the presence of different concentrations of imidazole derivatives. […] The data shown represent means of duplicate experiments.
# [3] = tested on: phytanic acid omega-hydroxylase (cytochrome P450); assay: in vitro; conditions: human, pH 7.7
# Protocol: as §2, §3
# [4] = tested on: phytanic acid (omega-1)-hydroxylase (cytochrome P450); assay: in vitro; conditions: human, pH 7.7
# Protocol: as §2, §3
# [5] = tested on: phytanic acid (omega-1)-hydroxylase (cytochrome P450) of rat liver microsomes; assay: Phytanic acid (omega-1)-hydroxylation in rat liver microsomes (formation of (omega-1)-hydroxyphytanic acid, GC/MS); assay type: biochemical; conditions: different concentrations up to 100 μM (FIG. 4B)
# Protocol: as §1
# The standard reaction mixture consisted of 100 mM potassium phosphate buffer pH 7.4 and rat liver microsomes (1 mg/ml end concentration) plus phytanic acid dissolved in DMSO (200 μM end concentration, unless indicated otherwise). Reactions were initiated by addition of NADPH at a final concentration of 1 mM. The final reaction volume was 0.2 ml. Reactions were terminated by addition of 0.2 ml 1 M HCl. […]
Structure (SMILES),effect on the formation of omega-hydroxyphytanic acid [1],effect on the formation of omega-hydroxyphytanic acid [2],IC50 [3],IC50 [4],effect on the formation of (omega-1)-hydroxyphytanic acid [5],further results
c1ccc(-c2ccc(C(c3ccccc3)n3ccnc3)cc2)cc1 (stereo not drawn) [Bifonazole],most potent inhibitor,inhibit product formation,13 µM,< 2 µM,,
Clc1ccccc1C(c1ccccc1)(c1ccccc1)n1ccnc1 [Clotrimazole],inhibited,inhibit product formation,43 µM,3 µM,stimulatory effect at low concentrations with little inhibition at the highest concentrations used,
CC(=O)N1CCN(c2ccc(OCC3COC(Cn4ccnc4)(c4ccc(Cl)cc4Cl)O3)cc2)CC1 (stereo not drawn) [Ketoconazole],inhibited,,,,,
Clc1ccc(COC(Cn2ccnc2)c2ccc(Cl)cc2Cl)c(Cl)c1 (stereo not drawn) [Miconazole],inhibited,inhibit product formation,30 µM,< 2 µM,most potent inhibitor,
NC(=O)C1=CN([C@@H]2O[C@H](COP(=O)(O)OP(=O)(O)OC[C@H]3O[C@@H](n4cnc5c(N)ncnc54)[C@H](OP(=O)(O)O)[C@@H]3O)[C@@H](O)[C@H]2O)C=CC1 [NADPH],,,,,,"Km ([1]; NADPH regenerating system, Lineweaver-Burke plot (FIG. 3C), read-out: apparent Km for NADPH): 35 µM; Km ([2]; read-out: Km for NADPH, NADPH-regenerating system, Lineweaver Burke plot (FIG. 6C), means of duplicate experiments): 2 µM"
"CC(C)CCCC(C)CCCC(C)CCCC(C)CC(=O)O (stereo not drawn) [phytanic acid, 3,7,11,15-tetramethylhexadecanoic acid]",,,,,,"Km ([1]; fixed molar ratio phytanic acid/methyl-beta-cyclodextrin (FIG. 3D), read-out: apparent Km for phytanic acid): 114 ± 9 µM; ratio omega:(omega-1) hydroxylated products ([1]; four separate experiments): 2.2±0.2; ratio omega:(omega-1) hydroxylated products ([2]; pooled human microsomes, four separate experiments): 15.4±0.7; Km ([2]; read-out: apparent Km for phytanic acid, estimated as substrate concentration with half maximal omega-hydroxylation activity (FIG. 6D)): 80 µM"
